In patent US20100136537A1, “PHOTORECEPTOR PRECURSOR CELLS” (THE REGENTS OF THE UNIVERSITY OF MICHIGAN, priority 2006, published 2010):
Blank lines part the entries; values can stand above or below the molecule they belong to.

Tests used:
mGluR8 = biological target: T1, mGluR8 (Mus musculus, UniProt P47743); assay: Calcium imaging (Fura Red) of whole-mount transplanted retinas, mGluR8 stimulation; format: cell-based; details: for changes in intracellular calcium ([Ca2+]i) on agonist application: recipient and Nrl.gfp-positive integrated rod cells, DCPG 20 μM in bath
T1 construct: from tissue; host or cells: whole-mount mouse neural retina; integrated Nrl.gfp-positive donor rods and recipient photoreceptors
Procedure: (§1) Calcium Imaging. Retinas transplanted with Nrl.gfp^+/+ P1 cells were dissected free of all surrounding tissue. Whole-mount neural retinas were loaded with Fura Red-AM (15 μM, Molecular Probes) and the dispersant Cremophor-EL (0.03%, Sigma) for 1.5 hrs at 36° C. and then de-esterified in fresh DMEM-F12 (without phenol red) for 30 mins at 36° C. Retinas were transferred to the stage of an inverted microscope (SP2, Leica, UK) and held flat under a nylon-strung platinum wire ‘harp’. XY images were taken through the cell bodies in the inner region of the ONL, nearest the outer plexiform layer, where rod (as opposed to cone, which lie at the outer edge of the ONL) photoreceptor nuclei reside. Images were acquired at 3 sec intervals and analysed off-line. Cells were selected at random and the mean fluorescence of individual cells was calculated and normalised against the fluorescence at time 0s. Drugs were applied by micro-pipette injection into the bathing solution.
(§2) Drugs. DCPG ((S)-3,4-dicarboxyphenylglycine) (20 μM; final concentration in bath), CPPG ((RS)-alpha-cyclopropyl-4-phosphonophenylglycine) (100 μM) and NMDA (N-methyl-D-aspartate) (200 μM) were supplied by Tocris (UK).

NRL = NRL expression in serum-starved Y79 cells (immunoblot, Northern blot); format: cell-based, human; details: for NRL expression (immunoblot): 24 h incubation
Procedure: Cell Culture. Y79 human retinoblastoma cells (ATCC HTB 18) and HEK293 (ATCC CRL-1573) were maintained in RPMI 1640 and Dulbecco's modified Eagle's medium, respectively, under standard conditions with 15% (v/v) fetal bovine serum (FBS), penicillin G (100 units/ml), and streptomycin (100 μg/ml) at 37° C. and 5% CO2. For serum starvation and RA treatment experiments, Y79 cells (5×10^4) were cultured in the presence or absence of the serum (same batch of serum was used in all the experiments), at RA, 9-cis-RA, cycloheximide (CHX), and 4-(E-2-(5,6,7,8-tetrahydro-5,5,8,8-tetramethyl-2-naphthalenl)-1-propenyl) benzoic acid (TTNPB) at indicated concentrations. Me2SO or ethanol was added to Y79 cells in lieu of the soluble factors as negative control.
For protein synthesis inhibition experiments, Y79 cells were serum-starved for 24 h, and then simultaneously treated with RA and CHX for 8 or 24 h. NRL expression was analyzed by immunoblotting. In another set of experiments, serum-starved Y79 cells were first incubated with RA alone for 8 or 24 h and then CHX was added. Cell extracts were then analyzed 24 h later for examining NRL expression by immunoblotting.
Protein Expression Analysis.

NMDA receptor = assay: Calcium imaging (Fura Red) of whole-mount transplanted retinas, NMDA receptor agonist; format: cell-based, mouse; details: NMDA 200 μM; photoreceptors
Procedure: as §1, §2

[1] = biological target: ΔCEP290 (truncated CEP290 of the rd16 mouse, in-frame deletion of amino acid residues 1599-1897) (mouse) (UniProt Q6A078); assay: co-immunoprecipitation with ORF15^CP antibody from rd16 vs WT retinal extract, immunoblot for CEP290
[2] = biological target: T2, CEP290 (wild-type mouse centrosomal protein CEP290, endogenous, retina) (mouse, UniProt Q6A078 1-2472); assay: co-immunoprecipitation from retinal extracts, immunoblot
T2 construct: range 1-2472; Endogenous protein in retinal extracts; alternatively spliced lower-mass isoforms are also mentioned; also called WT protein; full-length CEP290
T2 sequence (Q6A078 whole entry, canonical isoform): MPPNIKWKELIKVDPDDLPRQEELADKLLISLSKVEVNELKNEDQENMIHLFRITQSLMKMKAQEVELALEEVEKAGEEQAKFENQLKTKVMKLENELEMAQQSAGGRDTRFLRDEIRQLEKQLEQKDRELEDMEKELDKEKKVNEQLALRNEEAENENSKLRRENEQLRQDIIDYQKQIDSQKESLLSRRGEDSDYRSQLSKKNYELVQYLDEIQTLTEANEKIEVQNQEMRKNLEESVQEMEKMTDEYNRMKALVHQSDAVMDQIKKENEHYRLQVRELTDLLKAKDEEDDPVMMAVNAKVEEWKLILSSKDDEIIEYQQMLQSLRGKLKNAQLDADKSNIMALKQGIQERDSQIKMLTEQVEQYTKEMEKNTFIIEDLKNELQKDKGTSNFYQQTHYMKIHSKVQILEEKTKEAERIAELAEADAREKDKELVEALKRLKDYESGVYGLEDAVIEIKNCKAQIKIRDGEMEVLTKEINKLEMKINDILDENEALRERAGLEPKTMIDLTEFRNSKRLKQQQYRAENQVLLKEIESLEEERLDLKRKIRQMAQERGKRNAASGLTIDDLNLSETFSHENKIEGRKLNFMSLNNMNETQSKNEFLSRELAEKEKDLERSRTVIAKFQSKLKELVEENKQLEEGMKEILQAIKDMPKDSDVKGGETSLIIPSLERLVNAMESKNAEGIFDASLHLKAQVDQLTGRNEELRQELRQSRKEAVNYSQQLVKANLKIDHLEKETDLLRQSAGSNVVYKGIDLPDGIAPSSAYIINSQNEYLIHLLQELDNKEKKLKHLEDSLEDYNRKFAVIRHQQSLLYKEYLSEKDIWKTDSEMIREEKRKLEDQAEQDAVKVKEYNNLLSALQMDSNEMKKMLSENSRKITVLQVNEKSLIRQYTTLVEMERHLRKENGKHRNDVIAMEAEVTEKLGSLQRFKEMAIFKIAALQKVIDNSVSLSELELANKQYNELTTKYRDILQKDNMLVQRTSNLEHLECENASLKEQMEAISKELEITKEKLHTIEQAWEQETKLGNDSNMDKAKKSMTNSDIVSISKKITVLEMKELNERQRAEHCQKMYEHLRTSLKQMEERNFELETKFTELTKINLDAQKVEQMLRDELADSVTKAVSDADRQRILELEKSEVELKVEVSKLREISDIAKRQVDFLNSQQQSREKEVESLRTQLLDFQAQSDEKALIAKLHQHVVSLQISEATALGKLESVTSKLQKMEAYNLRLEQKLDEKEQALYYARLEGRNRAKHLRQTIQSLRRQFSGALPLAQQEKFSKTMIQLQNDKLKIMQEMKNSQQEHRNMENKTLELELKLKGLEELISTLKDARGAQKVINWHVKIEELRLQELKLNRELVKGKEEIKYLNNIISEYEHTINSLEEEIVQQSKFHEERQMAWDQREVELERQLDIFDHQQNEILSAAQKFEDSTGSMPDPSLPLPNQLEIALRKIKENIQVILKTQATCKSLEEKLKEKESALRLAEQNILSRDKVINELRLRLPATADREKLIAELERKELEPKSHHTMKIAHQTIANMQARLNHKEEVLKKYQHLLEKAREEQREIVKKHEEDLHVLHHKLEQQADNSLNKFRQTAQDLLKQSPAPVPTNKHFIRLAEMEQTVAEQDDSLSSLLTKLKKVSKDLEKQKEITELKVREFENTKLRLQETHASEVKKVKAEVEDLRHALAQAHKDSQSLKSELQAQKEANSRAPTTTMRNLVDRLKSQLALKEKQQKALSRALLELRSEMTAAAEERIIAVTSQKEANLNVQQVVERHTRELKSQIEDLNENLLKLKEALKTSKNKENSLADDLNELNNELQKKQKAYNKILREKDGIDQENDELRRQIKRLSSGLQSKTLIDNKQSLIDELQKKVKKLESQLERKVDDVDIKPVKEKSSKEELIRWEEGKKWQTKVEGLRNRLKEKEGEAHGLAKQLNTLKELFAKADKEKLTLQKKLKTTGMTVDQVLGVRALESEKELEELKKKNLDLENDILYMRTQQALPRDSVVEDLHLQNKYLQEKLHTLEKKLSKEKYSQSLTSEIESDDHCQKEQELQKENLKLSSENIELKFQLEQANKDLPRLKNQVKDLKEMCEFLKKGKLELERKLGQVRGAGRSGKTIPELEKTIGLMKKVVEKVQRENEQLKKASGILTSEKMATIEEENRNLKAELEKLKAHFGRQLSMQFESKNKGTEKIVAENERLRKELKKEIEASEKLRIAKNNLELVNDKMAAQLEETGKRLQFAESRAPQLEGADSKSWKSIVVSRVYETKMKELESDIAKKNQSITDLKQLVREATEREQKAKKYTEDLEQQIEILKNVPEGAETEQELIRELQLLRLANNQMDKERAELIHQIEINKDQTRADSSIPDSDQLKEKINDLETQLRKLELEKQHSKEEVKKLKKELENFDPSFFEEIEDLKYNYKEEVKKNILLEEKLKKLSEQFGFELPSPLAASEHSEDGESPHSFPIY

T1 sequence (P47743 34-908): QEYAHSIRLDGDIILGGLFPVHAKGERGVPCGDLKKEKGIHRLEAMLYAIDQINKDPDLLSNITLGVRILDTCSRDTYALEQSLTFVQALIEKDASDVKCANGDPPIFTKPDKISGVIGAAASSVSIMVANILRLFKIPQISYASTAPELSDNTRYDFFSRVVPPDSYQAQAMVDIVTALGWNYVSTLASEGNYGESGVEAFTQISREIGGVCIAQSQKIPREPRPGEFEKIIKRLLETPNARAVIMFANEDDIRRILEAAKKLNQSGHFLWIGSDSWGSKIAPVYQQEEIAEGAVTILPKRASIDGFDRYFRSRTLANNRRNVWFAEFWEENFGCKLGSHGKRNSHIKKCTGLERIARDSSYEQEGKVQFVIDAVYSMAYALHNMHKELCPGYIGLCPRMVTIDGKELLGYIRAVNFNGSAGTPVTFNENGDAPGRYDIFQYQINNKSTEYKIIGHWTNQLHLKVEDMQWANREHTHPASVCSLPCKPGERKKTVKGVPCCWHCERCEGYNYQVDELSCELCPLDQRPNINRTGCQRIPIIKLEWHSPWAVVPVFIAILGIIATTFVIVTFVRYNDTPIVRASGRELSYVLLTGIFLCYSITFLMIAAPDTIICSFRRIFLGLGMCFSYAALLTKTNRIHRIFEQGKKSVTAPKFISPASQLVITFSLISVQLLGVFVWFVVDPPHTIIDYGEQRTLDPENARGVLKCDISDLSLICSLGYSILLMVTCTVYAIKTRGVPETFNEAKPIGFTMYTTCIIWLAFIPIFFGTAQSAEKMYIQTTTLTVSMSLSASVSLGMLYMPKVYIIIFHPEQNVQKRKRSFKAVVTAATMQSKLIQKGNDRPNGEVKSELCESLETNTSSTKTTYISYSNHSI

block of the mGluR8 agonist-evoked [Ca2+]i change (mGluR8; CPPG 100 μM): can be blocked
Molecule: NC(C(=O)O)(c1ccc(P(=O)(O)O)cc1)C1CC1 (racemic) [CPPG, (RS)-alpha-cyclopropyl-4-phosphonophenylglycine]

Molecule: CC1=C(/C=C/C(C)=C\C=C\C(C)=C\C(=O)O)C(C)(C)CCC1 [9-cis RA, 9-cis-RA]
NRL expression (immunoblot) (NRL; serum-starved Y79 cells): dose-dependent increase in NRL expression

Molecule: C[C@@H]1C[C@@H]([C@H](O)CC2CC(=O)NC(=O)C2)C(=O)[C@@H](C)C1 [CHX, cycloheximide]
effect on RA-mediated NRL induction, added simultaneously with RA (NRL; CHX 20 μg/ml with at RA, serum-starved Y79 cells): blocked NRL induction
effect on NRL expression, added after RA pretreatment (NRL; cells pretreated with RA for 8 or 24 h, then CHX): no detectable effect on NRL expression

Molecule: N[C@H](C(=O)O)c1ccc(C(=O)O)c(C(=O)O)c1 [DCPG, (S)-3,4-dicarboxyphenylglycine]
changes in intracellular calcium ([Ca2+]i) on agonist application (mGluR8): consistently evoked changes in ([Ca^2+]i)

Molecule: CN[C@H](CC(=O)O)C(=O)O [NMDA, N-methyl-D-aspartate]
effect of NMDA receptor agonist on [Ca2+]i (NMDA receptor): showed no effect

Molecule: C/C(=C\c1ccc(C(=O)O)cc1)c1ccc2c(c1)C(C)(C)CCC2(C)C [TTNPB, 4-(E-2-(5,6,7,8-tetrahydro-5,5,8,8-tetramethyl-2-naphthalenl)-1-propenyl) benzoic acid]
NRL expression (immunoblot) (NRL; serum-starved Y79 cells): mimicked

Molecule: N[C@@H](CCC(=O)O)C(=O)O [glutamate]
changes in intracellular calcium ([Ca2+]i) on agonist application (mGluR8): consistently evoked changes in ([Ca^2+]i)

fold higher level co-immunoprecipitated compared with the WT protein [1]: 50 times
B1: RPGR-ORF15 (retina-enriched RPGR-ORF15 isoform(s)) (protein, mouse, UniProt Q9R0X5-5 1-1305, looked up)
chain: MAESESLVPDTGAVFTFGKTKFAENIPSKFWFKNDIPICLSCGDEHTAIVTGNNKLYMFGSNNWGQLGLGSKAAIIKPTCIKALKPEKVKLAACGRNHTLVSTDTGGVYAAGGNNEGQLGLGDTDDRDTFHQIVFFTPADTIKQLSAGANTSAALTEDGKLFMWGDNSEGQIGLEDKSNVCIPHEVTVGKPISWISCGYYHSAFVTMDGELYTFGEPENGKLGLPNELLMNHRSPQRVLGIPERVIQVACGGGHTVVLTEKVVYAFGLGQFGQLGLGTFLFETSEPKIIERIKDQKICHISCGENHTALMTELGLLYTFGDGRHGKLGLGMENFTNQFFPTLCSNFLRFAVQLIACGGCHMLVFATPRLGTIDEPKFEDVYEPYISTGSFSINDLSPRSSLNRSLSARLRRRERERPPCSASMVGTLPPLEGTSASTSAYFYPSSPPFHLSVNNYPEKSPSESMEPLDSDYFEDKMNKDTETENSSAVDSENFGETNDILNMTHMMTTSSNEKLLDFSPIQKQQNQDTFEKVMESTPCTENEDSYEYEEMSKIKEVTVYKQYLAKGIYMIRPAEILEAFSDEEVGNGLDQVEEPRVFTDGKGLQSKQVGKESDEEIVSEKKTEVMEVADVKKIRESEENSKSDSLFDDLPDKTMNSESEDNKDIAEERRSSEQNMTFDSETELVEEPDSYMECERHSEQDSAEELEQPKLVEYSSEEKDEKDEKDDDEVETENLWYDRNCTEQETENVFRATRFFPKFDLKHDHLSGIPEEQEGPEDSEGNVVVEQVVQAQKENLEFEGDRKEAKAEAPSDVITEKEVSESERESGGEREDRSEGDGDQICEKVSLETEHLQRAQGKQERKKGKDKRARCILDMKEREEDKGWEKGSEGGDKMKRDEGNQEKRKKEMEERDAGDERSEEEEGEEEEPEEGEKEEGGEEEEGTSEDQSREDEGDRQEKEGRREGKGRQEDGREGWKEGEEQEQEEEIEEGEEEEREGEEEGGEEEGEGEGEREEEGEGEEEGEGEEEGEGEEEGEGEEEGEGEEEGEGEEEGEGEEEGEGEEDGEGEEDGEGEEEGEGEEEGEREEDGEGEEDGEGEEEGEGEEEGEGEEEGEGEEEGEGEGEEEGEGEWEGEEEGEGEEEGEGEEEGEGEEEGEGEEEGEGEEEGGEDDEGEELEKKKGDITEEEEEEEEGQEGDEREREEHGSCEDDVEEDKTYDREEGEYKKAIGKVADNESQEDRKQSPKVSKINGSMKYGRHGTYSEKPITNLGKTQPSKMPMESRQLVENGLLGSERFWSDVLPLYLELK

binding result [2]: no binding
B2: nucleophosmin (NPM) (other, mouse, UniProt Q61937 1-292, looked up)
chain: MEDSMDMDMSPLRPQNYLFGCELKADKDYHFKVDNDENEHQLSLRTVSLGAGAKDELHIVEAEAMNYEGSPIKVTLATLKMSVQPTVSLGGFEITPPVVLRLKCGSGPVHISGQHLVAVEEDAESEDEDEEDVKLLGMSGKRSAPGGGNKVPQKKVKLDEDDEDDDEDDEDDEDDDDDDFDEEETEEKVPVKKSVRDTPAKNAQKSNQNGKDLKPSTPRSKGQESFKKQEKTPKTPKGPSSVEDIKAKMQASIEKGGSLPKVEAKFINYVKNCFRMTDQEAIQDLWQWRKSL

binding result [2]: no binding
B3: Nephrocystin-5 (NPHP5) (other, mouse, UniProt Q8BP00 1-598, looked up)
chain: MKPAGTDPRILSLAAEVAKSPEQNVPVILLKLKEIINNTPLGSSELKKVKQDIYCYDLIQYCLLVLSQDSSRIQGGWSTISQLTQILSHCCVGLEPGEDGEEFYKELLPSAAENFLILGRRLQTCFINATKGEEQDKLLHFFQIVTDSLFWLLGGHVQLIQNVLQSDHFLHLLQTDNVQIGASVMTLLQNILQINSGNLLKIEGKALHSILDEILFKLLSTPSPVIRSTATKLLLVLAESHQEILILLRLSACYKGLRSLLNKQETLTEFSRELRQLVDLLTPKIHQEVEEQKLHKAACLIQAYWKGFQTRKRLKKLPSAVIALQRSFRSKRTKMMLELNRQKEEEDLRLKLQLQRQRAMRLSRESRLNMLEIIHPGQVEKYNREMEEKSALTIQKHWRGYRERKNFRQQRPSLTEYKAAVTLQRAVLKFLAKCRKKKKLFASWHGLQELTDARRVELKQQVDDYVKRHPCSQMSEAASRELHAQAQERLQHYFMGRAIEERAQQHREALMAQISTNIEQLMKAPSLKEAEGKEPEQFLSRSRPVAAKAKQAHLTTLKHIQAPWWKKLGEEPGDEVDVPKDELSIDLGMLFIGGTKPP
